This note sets out measurements from ChEMBL document CHEMBL1150752, “Inhibition of cow's milk xanthine oxidase by flavonoids” (J Nat Prod, 1988).

The structures appear in SMILES notation.

Chain of Xanthine dehydrogenase/oxidase (P80457 whole entry): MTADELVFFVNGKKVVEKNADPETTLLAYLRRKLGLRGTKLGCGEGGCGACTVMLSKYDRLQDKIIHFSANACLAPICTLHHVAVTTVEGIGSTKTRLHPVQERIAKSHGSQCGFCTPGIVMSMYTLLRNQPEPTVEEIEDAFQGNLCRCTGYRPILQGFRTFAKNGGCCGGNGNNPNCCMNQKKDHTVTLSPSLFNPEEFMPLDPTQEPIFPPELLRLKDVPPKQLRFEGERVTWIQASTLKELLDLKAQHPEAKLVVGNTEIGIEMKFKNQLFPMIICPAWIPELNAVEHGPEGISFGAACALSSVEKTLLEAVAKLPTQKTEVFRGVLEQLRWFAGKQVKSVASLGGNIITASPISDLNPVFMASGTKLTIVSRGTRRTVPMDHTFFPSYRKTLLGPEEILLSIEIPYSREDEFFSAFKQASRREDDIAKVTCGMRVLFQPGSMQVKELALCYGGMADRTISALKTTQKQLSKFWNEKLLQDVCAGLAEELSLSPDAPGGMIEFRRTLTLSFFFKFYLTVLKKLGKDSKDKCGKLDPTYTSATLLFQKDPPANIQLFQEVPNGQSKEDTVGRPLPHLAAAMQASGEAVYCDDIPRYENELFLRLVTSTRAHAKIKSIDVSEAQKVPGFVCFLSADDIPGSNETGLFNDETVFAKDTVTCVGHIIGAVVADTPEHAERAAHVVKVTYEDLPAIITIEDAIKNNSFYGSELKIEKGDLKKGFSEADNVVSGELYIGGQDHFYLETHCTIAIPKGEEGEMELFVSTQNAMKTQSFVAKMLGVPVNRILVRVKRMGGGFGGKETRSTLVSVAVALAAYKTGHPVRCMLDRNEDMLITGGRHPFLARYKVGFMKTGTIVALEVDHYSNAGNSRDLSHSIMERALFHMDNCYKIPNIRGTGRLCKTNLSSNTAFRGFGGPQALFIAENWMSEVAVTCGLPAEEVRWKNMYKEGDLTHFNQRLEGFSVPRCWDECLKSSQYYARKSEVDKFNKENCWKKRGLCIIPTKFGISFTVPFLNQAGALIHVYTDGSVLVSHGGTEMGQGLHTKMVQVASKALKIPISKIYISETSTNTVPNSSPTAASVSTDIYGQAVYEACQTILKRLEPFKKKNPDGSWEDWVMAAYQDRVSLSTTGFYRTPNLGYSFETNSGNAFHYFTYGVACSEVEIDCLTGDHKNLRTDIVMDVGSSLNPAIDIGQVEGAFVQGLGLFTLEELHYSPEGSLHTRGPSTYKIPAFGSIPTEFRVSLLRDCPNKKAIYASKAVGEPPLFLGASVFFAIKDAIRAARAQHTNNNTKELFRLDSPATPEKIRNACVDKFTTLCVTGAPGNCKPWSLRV

The assay concerns the target Xanthine dehydrogenase/oxidase (Bos taurus, UniProt P80457). The experiment in a line: Inhibition of cow milk xanthine oxidase at 50 ug/mL. The settings on record: cattle.
In turn, `O=c1cc(-c2ccc(O)c(O)c2)oc2c([C@@H]3O[C@H](CO)[C@@H](O)[C@H](O)[C@H]3O)c(O)cc(O)c12` [ORIENTIN] gave an inhibition at 50 µg/mL of 15.3%.

Consider `CC(=O)Oc1ccc(-c2cc(=O)c3c(OC(C)=O)c(OC(C)=O)c(OC(C)=O)cc3o2)cc1`, for which testing at 50 µg/mL gave an inhibition of 0%.

In the case of `COc1cc2oc(-c3ccc(O[C@@H]4O[C@H](CO)[C@@H](O)[C@H](O)[C@H]4O)c(O)c3)cc(=O)c2c(O)c1OC`, at 50 µg/mL the inhibition was 0%.

`COc1ccc(-c2cc(=O)c3c(O)c([C@@H]4O[C@H](CO)[C@@H](O)[C@H](O)[C@H]4O)c(OC)cc3o2)cc1` [EMBIGENIN] displayed an inhibition at 50 µg/mL of 33.5%.

`COc1ccc(-c2coc3cc(O)c(OC)c(O)c3c2=O)cc1O` [IRISTECTORIGENIN A]: at 50 µg/mL the inhibition was 0%.

Compound `COc1c(O)cc2occ(-c3ccc(O)cc3)c(=O)c2c1O` [TECTORIGENIN] returned an inhibition at 50 µg/mL of 0%.

`O=c1c(-c2ccc(O)cc2)coc2cc(O[C@@H]3O[C@H](CO)[C@@H](O)[C@H](O)[C@H]3O)cc(O)c12` [GENISTIN]: at 50 µg/mL the inhibition was 0.8%.

Consider `O=c1c(O)c(-c2ccc(O)c(O)c2)oc2cc(O[C@@H]3O[C@H](CO)[C@@H](O)[C@H](O)[C@H]3O)cc(O)c12` [QUERCIMERITRIN], for which the inhibition at 50 µg/mL came out at 0%.

For the compound `COc1ccc(-c2cc(=O)c3c(O)c([C@H]4O[C@H](CO)[C@@H](O)[C@H](O)[C@H]4O[C@H]4O[C@H](C)[C@@H](O)[C@H](O)[C@@H]4O)c(OC)cc3o2)cc1` [EMBININ], the inhibition at 50 µg/mL was 22.8%.

`O=C1C[C@@H](c2ccc(O)cc2)Oc2cc(O)ccc21` [LIQUIRTIGENIN]: testing at 50 µg/mL gave an inhibition of 100%.

`COc1cc2oc(-c3ccc(O)c(O)c3)cc(=O)c2c(O)c1OC` [CIRSILIOL]: testing at 50 µg/mL gave an inhibition of 0.5%.

`O=c1cc(-c2ccc(O)c(O)c2)oc2cc(O)c([C@@H]3O[C@H](CO)[C@@H](O)[C@H](O)[C@H]3O)c(O)c12` [ISOORIENTIN]: the inhibition at 50 µg/mL turned out to be 25.2%.

Compound `COc1c(O[C@@H]2O[C@H](CO)[C@@H](O)[C@H](O)[C@H]2O)cc2occ(-c3ccc(O)cc3)c(=O)c2c1O` [TECTORIDIN] came in with an inhibition at 50 µg/mL of 0%.

In turn, `O=c1c(-c2ccc(O)cc2)coc2cc(O[C@@H]3O[C@H](CO)[C@@H](O)[C@H](O)[C@H]3O)ccc12` [DAIDZIN] yielded an inhibition at 50 µg/mL of 0%.

`O=C1c2ccc(O)cc2O[C@H](c2ccc(O)c(O)c2)[C@H]1O` [FUSTIN] registered an inhibition at 50 µg/mL of 27.2%.

With `COc1cc2oc(-c3ccccc3)cc(=O)c2c(OC)c1OC` [BAICALEIN TRIMETHYL ETHER], the inhibition at 50 µg/mL was found to be 22%.

Regarding `COc1ccc(-c2cc(=O)c3c(O)cc(O[C@@H]4O[C@H](CO[C@@H]5O[C@@H](C)[C@H](O)[C@@H](O)[C@H]5O)[C@@H](O)[C@H](O)[C@H]4O)cc3o2)cc1` [ACACIIN], the inhibition at 50 µg/mL was 15.1%.

`O=c1c(-c2ccc(O)cc2)coc2cc(O)cc(O)c12` [GENISTEIN] gave an inhibition at 50 µg/mL of 0%.

On to `COc1ccc(-c2cc(=O)c3c(O)cc(O[C@@H]4O[C@H](CO)[C@@H](O)[C@H](O)[C@H]4O)cc3o2)cc1O`, for which the inhibition at 50 µg/mL came to 28.9%.

As for `COc1cc(O)c2c(c1)O[C@H](c1ccc(O)cc1)CC2=O` [SAKURANETIN], the inhibition at 50 µg/mL was 0%.

Compound `COc1ccc([C@@H]2CC(=O)c3c(O)cc(O[C@@H]4O[C@H](CO)[C@@H](O)[C@H](O)[C@H]4O[C@@H]4O[C@@H](C)[C@H](O)[C@@H](O)[C@H]4O)cc3O2)cc1` [PONCIRIN] came in with an inhibition at 50 µg/mL of 0%.

Take `COc1ccc(-c2cc(=O)c3c(O)cc(O[C@@H]4O[C@H](CO[C@@H]5O[C@@H](C)[C@H](O)[C@@H](O)[C@H]5O)[C@@H](O)[C@H](O)[C@H]4O)cc3o2)cc1O` [DIOSMIN]: at 50 µg/mL the inhibition was 0%.

`O=C(O)[C@H]1O[C@@H](Oc2c(-c3ccc(O)c(O)c3)oc3cc(O)cc(O)c3c2=O)[C@H](O)[C@@H](O)[C@@H]1O` [QUERCETIN GLUCURONIDE]: the inhibition at 50 µg/mL came to 36.5%.

`COc1cc2oc(-c3ccc(O)cc3)cc(=O)c2c(O)c1OC` [CIRSIMARITIN] showed an inhibition at 50 µg/mL of 0%.

`COc1ccc(-c2cc(=O)c3c(O)cc(O[C@@H]4O[C@H](CO[C@@H]5OC[C@@H](O)[C@@H](O)[C@@H]5O)[C@@H](O)[C@H](O)[C@H]4O)cc3o2)cc1O` yielded an inhibition at 50 µg/mL of 30.5%.

Compound `COc1ccc(-c2cc(=O)c3c(O)c(OC)c(O[C@@H]4O[C@H](CO[C@@H]5O[C@@H](C)[C@H](O)[C@@H](O)[C@H]5O)[C@@H](O)[C@H](O)[C@H]4O)cc3o2)cc1` [PECTOLINARIN] yielded an inhibition at 50 µg/mL of 11.5%.

For the compound `C[C@@H]1O[C@@H](O[C@H]2C(=O)c3c(O)cc(O)cc3O[C@@H]2c2ccc(O)c(O)c2)[C@H](O)[C@H](O)[C@H]1O` [ASTILBIN], the inhibition at 50 µg/mL was 0%.

In turn, `CC(C)=CCc1c(O[C@@H]2O[C@H](CO)[C@@H](O)[C@H](O)[C@H]2O)cc(O)c2c1O[C@H](c1ccc(O)cc1)[C@@H](O)C2=O` [PHELLAMURIN] registered an inhibition at 50 µg/mL of 0%.

`COc1c(-c2ccc(O)c(O)c2)oc2cc(O[C@@H]3O[C@H](CO)[C@@H](O)[C@H](O)[C@H]3O)cc(O)c2c1=O` [TRANSILIN]: the inhibition at 50 µg/mL was 39.5%.

With `O=c1cc(-c2ccc(O)cc2)oc2cc(O[C@@H]3O[C@H](CO)[C@@H](O)[C@H](O)[C@H]3O)cc(O)c12` [APIGETRIN], the inhibition at 50 µg/mL was found to be 13.9%.

Regarding `COc1cc2oc(-c3ccc(O)cc3)cc(=O)c2c(O)c1[C@@H]1O[C@H](CO)[C@@H](O)[C@H](O)[C@H]1O` [SWERTISIN], testing at 50 µg/mL gave an inhibition of 24.9%.

As for `O=C1C[C@@H](c2ccc(O)c(O)c2)Oc2cc(O)cc(O)c21` [ERIODICTYOL], the inhibition at 50 µg/mL turned out to be 47.8%.

`O=c1cc(-c2ccc(O)c(O)c2)oc2cc(O[C@@H]3O[C@H](CO)[C@@H](O)[C@H](O)[C@H]3O)c([C@@H]3O[C@H](CO)[C@@H](O)[C@H](O)[C@H]3O)c(O)c12` came in with an inhibition at 50 µg/mL of 0%.

Compound `C[C@@H]1O[C@@H](O[C@H]2[C@H](Oc3cc(O)c4c(=O)cc(-c5ccc(O)cc5)oc4c3)O[C@H](CO)[C@@H](O)[C@@H]2O)[C@H](O)[C@H](O)[C@H]1O` [RHOIFOLIN] showed an inhibition at 50 µg/mL of 12.9%.

As for `O=c1c(-c2ccc(O[C@@H]3O[C@H](CO)[C@@H](O)[C@H](O)[C@H]3O)cc2)coc2cc(O)cc(O)c12` [SOPHORICOSIDE], 50 µg/mL produced 15.3% inhibition.

Turning to `COc1ccc(-c2cc(=O)c3c(O)c(OC)c(O)cc3o2)cc1` [PECTOLINARIGENIN], the inhibition at 50 µg/mL is 32.1%.

In turn, `O=c1c(-c2ccc(O)cc2)coc2cc(O)ccc12` [DAIDZEIN] returned an inhibition at 50 µg/mL of 0%.

In turn, `COc1cc(-c2cc(=O)c3c(O)c(OC)c(OC)cc3o2)ccc1O[C@@H]1O[C@H](CO)[C@@H](O)[C@H](O)[C@H]1O` yielded an inhibition at 50 µg/mL of 0%.

On to `O=c1c(O)c(-c2cc(O)c(O)c(O)c2)oc2cc(O)ccc12` [ROBINETIN], for which 50 µg/mL produced 82.9% inhibition.

Compound `CC(=O)Oc1cc(OC(C)=O)c2c(=O)c(OC(C)=O)c(-c3cc(OC(C)=O)c(OC(C)=O)c(OC(C)=O)c3)oc2c1` gave an inhibition at 50 µg/mL of 13.6%.

Turning to `COc1cc(-c2coc3cc(O[C@@H]4O[C@H](CO)[C@@H](O)[C@H](O)[C@H]4O)c(OC)c(O)c3c2=O)cc(O)c1OC` [IRIDIN], at 50 µg/mL the inhibition was 0%.

With `O=c1c(O[C@@H]2O[C@@H](CO)[C@H](O)[C@H]2O)c(-c2ccc(O)c(O)c2)oc2cc(O)cc(O)c12` [AVICULARIN], at 50 µg/mL the inhibition was 30.8%.

A word on the inhibition: it is the share of the control response that was lost under treatment. Higher therefore signals strong suppression.
